Measurements: patent US20220267352A1, “RAPAMYCIN ANALOGS AND USES THEREOF” (Anakuria Therapeutics, Inc., priority 2021, published 2022)
Blank lines part the entries; values can stand above or below the compound they belong to.

Tests used:
Assay type in all cases: cell-based
[1] = test system: p-p70 S6 Kinase (Thr389) in MCF-7 cells; assay: AlphaLISA Ultra pS6K1 assay; settings: Homo sapiens, 1.5 h; MCF7 cells, 90 min
Procedure, shortened: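 Phospho-S6K1 (Thr389) quantified by AlphaLISA Ultra read-out (2 h acceptor, then 2 h donor beads) in lysates of MCF-7 cells. Cells were plated 20–24 h before, refed 2 h, exposed to compounds for 90 min at 0.5% final DMSO, and lysates stored at −80 °C.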

[2] = test system: pS6K1 T389 and pAkt S473 in PC3 cells; assay: Western blot based pS6K1 and pAKT assay at 24 and 48 hour timepoints
Experimental: Example 57: Western Blot Based pS6K1 and pAKT Assay at 24 and 48 Hour Timepoints
Assay Protocol: • 1. Seed six well plate with 500,000 PC3 cells per well and incubate for 20˜24 hour. • 2. Add compounds into the cell plate. Incubate for 24 to 48 hours. • 4. Plate is placed on ice and the media is removed via aspiration. The wells are washed with 1 mL of 1x PBS and then fully aspirated. • 5. 110 μL of 1% Triton Lysis Buffer is added and each well is scraped vigorously. • 6. Cell homogenates are transferred to 1.5 mL eppendorf tubes on ice and spun down at 4° C. for 10 minutes at 10,000 rpm. • 7. Protein concentration of resulting cell lysates were quantified utilizing a Bradford assay and the samples run analyzed via Western blot on 4-12% Bis/Tris gels with 1×MES buffer. • 8. The gels were transferred onto membranes at 50V for 100 minutes, blocked with Odyssey Blocking buffer for 30 minutes then incubated overnight with primary antibody (pS6K1 T389 Rabbit or pAkt S473 Rabbit) overnight at 4° C. on a rotator. • 9. The membranes were washed 3× with TBS-T with a 5 minute incubation between each wash then incubated with secondary antibody (LiCor IRDye 800 Donkey Anti Rabbit) for at least 30 minutes. • 10. The membranes were washed 3× with TBS-T with a 5 minute incubation between each wash. • 11. The gels were then incubated for 5 minutes with PBS at room temperature then imaged using a Li-Cor.
Compounds that are not selective by comparing pS6K1 and pAKT IC50 by kinase assays are indicated by “NO” in the “mTORC1 selective @ 90 min” column of Table 4. […] Compounds that are not selective at the 24 hrs mark are indicated by “NO” in the “mTORC1 selective @ 24 hrs” column of Table 4. “N/A” stands for “not assayed” and “N/C” stands for “not calculated”.

mTORC1 over mTORC2 = mTORC1 over mTORC2 selectivity by comparing pS6K1 and pAKT IC50; settings: by comparing pS6K1 and pAKT IC50, 90 min
Procedure, shortened: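 MCF-7 cells were treated with compounds (0.5% final DMSO) for 90 minutes in one protocol and 2 hours in the other, then lysed. Phospho-signal in lysates was read by bead-based donor/acceptor proximity assay. pS6K1 and pAKT IC50 values were compared to judge mTORC1 over mTORC2 selectivity, at 90 min and at 24 hrs.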

[3] = test system: p-Akt 1/2/3 (Ser473) in MCF-7 cells; assay: AlphaLISA Ultra pAKT assay; settings: Homo sapiens, 1.5 h; MCF7 cells, 90 min
Procedure, shortened: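 MCF-7 cells (16,000˜20,000 per well in 36 μL medium) were seeded in Corning 3701 plates for 20˜24 hour, refreshed with new medium for 90 minutes, then given 12 μL of 4× compound (0.5% final DMSO). Cells were lysed with 2× lysis buffer, and lysate was analyzed by AlphaLISA Ultra pAKT using acceptor and donor beads, read on an EnSpire reader.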

IC50 [1]: < 1 nM
SMILES: CO[C@@H]1/C(C)=C/[C@@H](C)C(=O)C[C@@H]([C@H](C)C[C@@H]2CC[C@@H](OCCCO)[C@H](OC)C2)OC(=O)[C@@H]2CCCCN2C(=O)C(=O)[C@]2(O)O[C@@H](CC[C@H]2C)C[C@H](OCCOC2COC2)/C(C)=C/C=C/C=C/[C@@H](C)C[C@@H](C)C(=O)[C@@H]1OC [I-45, (23E,25E,27E,28E,35R,36S,37R,38R,40S,42S,44S,45S,47R,48R,57R)-47,57-dihydroxy-45-[(1R)-2-[(1S,3R,4R)-4-(3-hydroxypropoxy)-3-methoxy-cyclohexyl]-1-methyl-ethyl]-48-methoxy-35,36,37,38,49,50-hexamethyl-44-[2-(oxetan-3-yloxy)ethoxy]-68,69-dioxa-58-azatricyclohexatriaconta-23,25,27(49),28(50)-tetraene-51,52,53,54,55-pentone]
mTORC1 selective @ 24 hrs [2]: Yes

IC50 [1]: 1 to 10 nM
SMILES: COCCOCCO[C@H]1C[C@@H]2CC[C@@H](C)[C@@](O)(O2)C(=O)C(=O)N2CCCC[C@H]2C(=O)O[C@H]([C@H](C)C[C@@H]2CC[C@@H](OCCOC)[C@H](OC)C2)CC(=O)[C@H](C)/C=C(\C)[C@@H](OC)[C@@H](OC)C(=O)[C@H](C)C[C@H](C)/C=C/C=C/C=C/1C [I-47, (24E,26E,28E,29E,37R,38S,39R,40R,42S,44S,46S,47S,48R,49R,58R)-58-hydroxy-48,49-dimethoxy-46-[2-(2-methoxyethoxy)ethoxy]-47-[(1R)-2-[(1S,3R,4R)-3-methoxy-4-(2-methoxyethoxy)cyclohexyl]-1-methyl-ethyl]-37,38,39,40,50,51-hexamethyl-66,67-dioxa-59-azatricyclohexatriaconta-24,26,28(50),29(51)-tetraene-52,53,54,55,56-pentone]
mTORC1 selective @ 24 hrs [2]: Yes

IC50 [1]: 100 to 1000 nM
SMILES: CO[C@@H]1/C(C)=C/[C@@H](C)C(=O)C[C@@H]([C@H](C)C[C@@H]2CC[C@@H](OCCO)[C@H](OC)C2)OC(=O)[C@@H]2CCCCN2C(=O)C(=O)[C@]2(O)O[C@@H](CC[C@H]2C)C[C@H](OCCOCCOC2COC2)/C(C)=C/C=C/C=C/[C@@H](C)C[C@@H](C)C(=O)[C@@H]1OC [I-62, (1R,9S,12S,15R,16E,18R,19R,21R,23S,24E,26E,28E,30S,32S,35R)-1-hydroxy-12-[(1R)-2-[(1S,3R,4R)-4-(2-hydroxyethoxy)-3-methoxy-cyclohexyl]-1-methyl-ethyl]-18,19-dimethoxy-15,17,21,23,29,35-hexamethyl-30-[2-[2-(oxetan-3-yloxy)ethoxy]ethoxy]-11,36-dioxa-4-azatricyclo[30.3.1.0^4,9]hexatriaconta-16,24,26,28-tetraene-2,3,10,14,20-pentone]
mTORC1 selective @ 24 hrs [2]: No

IC50 [1]: ≥ 1000 nM
SMILES: COCCO[C@@H]1CC[C@@H](C[C@@H](C)[C@@H]2CC(=O)[C@H](C)/C=C(\C)[C@@H](OC)[C@@H](OC)C(=O)[C@H](C)C[C@H](C)/C=C/C=C/C=C(\C)[C@@H](OCCOCCOC3COC3)C[C@@H]3CC[C@@H](C)[C@@](O)(O3)C(=O)C(=O)N3CCCC[C@H]3C(=O)O2)C[C@H]1OC [I-69, (1R,9S,12S,15R,16E,18R,19R,21R,23S,24E,26E,28E,30S,32S,35R)-1-hydroxy-18,19-dimethoxy-12-[(1R)-2-[(1S,3R,4R)-3-methoxy-4-(2-methoxyethoxy)cyclohexyl]-1-methyl-ethyl]-15,17,21,23,29,35-hexamethyl-30-[2-[2-(oxetan-3-yloxy)ethoxy]ethoxy]-11,36-dioxa-4-azatricyclo[30.3.1.0^4,9]hexatriaconta-16,24,26,28-tetraene-2,3,10,14,20-pentone]
mTORC1 selective @ 24 hrs [2]: No

IC50 [1]: ≥ 1000 nM
IC50 [3]: ≥ 1000 nM
SMILES: COCCO[C@@H]1CC[C@@H](C[C@@H](C)[C@@H]2CC(=O)[C@H](C)/C=C(\C)[C@@H](OC)[C@@H](OC)C(=O)[C@H](C)C[C@H](C)/C=C/C=C/C=C(\C)[C@@H](OCCOC3COC3)C[C@@H]3CC[C@@H](C)[C@@](O)(O3)C(=O)C(=O)N3CCCC[C@H]3C(=O)O2)C[C@H]1OC [I-83, (1R,9S,12S,15R,16E,18R,19R,21R,23S,24E,26E,28E,30S,32S,35R)-1-hydroxy-18,19-dimethoxy-12-[(1R)-2-[(1S,3R,4R)-3-methoxy-4-(2-methoxyethoxy)cyclohexyl]-1-methyl-ethyl]-15,17,21,23,29,35-hexamethyl-30-[2-(oxetan-3-yloxy)ethoxy]-11,36-dioxa-4-azatricyclo[30.3.1.0^4,9]hexatriaconta-16,24,26,28-tetraene-2,3,10,14,20-pentone]
mTORC1 selective @ 90 min (mTORC1 over mTORC2): No
mTORC1 selective @ 24 hrs [2]: No

Second part, the compound before the results:

SMILES: COCCOCCO[C@H]1C[C@@H]2CC[C@@H](C)[C@@](O)(O2)C(=O)C(=O)N2CCCC[C@H]2C(=O)O[C@H]([C@H](C)C[C@@H]2CC[C@@H](O)[C@H](OC)C2)CC(=O)[C@H](C)/C=C(\C)[C@@H](OC)[C@@H](OC)C(=O)[C@H](C)C[C@H](C)/C=C/C=C/C=C/1C [I-49, (23E,25E,27E,28E,34R,35S,36R,37R,39S,41S,43S,44S,45R,46R,55R)-55-hydroxy-44-[(1R)-2-[(1S,3R,4R)-4-hydroxy-3-methoxy-cyclohexyl]-1-methyl-ethyl]-45,46-dimethoxy-43-[2-(2-methoxyethoxy)ethoxy]-34,35,36,37,47,48-hexamethyl-64,65-dioxa-56-azatricyclohexatriaconta-23,25,27(47),28(48)-tetraene-49,50,51,52,53-pentone]
IC50 [1]: 1 to 10 nM
mTORC1 selective @ 24 hrs [2]: Yes

SMILES: COCCO[C@@H]1CC[C@@H](C[C@@H](C)[C@@H]2CC(=O)[C@H](C)/C=C(\C)[C@@H](O)[C@@H](OC)C(=O)[C@H](C)C[C@H](C)/C=C/C=C/C=C(\C)[C@@H](OC[C@H]3COCCO3)C[C@@H]3CC[C@@H](C)[C@@](O)(O3)C(=O)C(=O)N3CCCC[C@H]3C(=O)O2)C[C@H]1OC [I-64, (1R,9S,12S,15R,16E,18R,19R,21R,23S,24E,26E,28E,30S,32S,35R)-30-[[(2R)-1,4-dioxan-2-yl]methoxy]-1,18-dihydroxy-19-methoxy-12-[(1R)-2-[(1S,3R,4R)-3-methoxy-4-(2-methoxyethoxy)cyclohexyl]-1-methyl-ethyl]-15,17,21,23,29,35-hexamethyl-11,36-dioxa-4-azatricyclo[30.3.1.0^4,9]hexatriaconta-16,24,26,28-tetraene-2,3,10,14,20-pentone]
IC50 [1]: 1 to 10 nM
mTORC1 selective @ 24 hrs [2]: Yes

SMILES: COCCO[C@@H]1CC[C@@H](C[C@@H](C)[C@@H]2CC(=O)[C@H](C)/C=C(\C)[C@@H](O)[C@@H](OC)C(=O)[C@H](C)C[C@H](C)/C=C/C=C/C=C(\C)[C@@H](OC[C@@H]3COCCO3)C[C@@H]3CC[C@@H](C)[C@@](O)(O3)C(=O)C(=O)N3CCCC[C@H]3C(=O)O2)C[C@H]1OC [I-66, (1R,9S,12S,15R,16E,18R,19R,21R,23S,24E,26E,28E,30S,32S,35R)-30-[[(2S)-1,4-dioxan-2-yl]methoxy]-1,18-dihydroxy-19-methoxy-12-[(1R)-2-[(1S,3R,4R)-3-methoxy-4-(2-methoxyethoxy)cyclohexyl]-1-methyl-ethyl]-15,17,21,23,29,35-hexamethyl-11,36-dioxa-4-azatricyclo[30.3.1.0^4,9]hexatriaconta-16,24,26,28-tetraene-2,3,10,14,20-pentone]
IC50 [1]: 1 to 10 nM
mTORC1 selective @ 24 hrs [2]: Yes

SMILES: CO[C@@H]1C[C@H](C[C@@H](C)[C@@H]2CC(=O)[C@H](C)/C=C(\C)[C@@H](O)[C@@H](OC)C(=O)[C@H](C)C[C@H](C)/C=C/C=C/C=C(\C)[C@@H](OC[C@@H]3COCCO3)C[C@@H]3CC[C@@H](C)[C@@](O)(O3)C(=O)C(=O)N3CCCC[C@H]3C(=O)O2)CC[C@H]1OCCO [I-85, (1R,9S,12S,15R,16E,18R,19R,21R,23S,24E,26E,28E,30S,32S,35R)-30-[[(2S)-1,4-dioxan-2-yl]methoxy]-1,18-dihydroxy-12-[(1R)-2-[(1S,3R,4R)-4-(2-hydroxyethoxy)-3-methoxy-cyclohexyl]-1-methyl-ethyl]-19-methoxy-15,17,21,23,29,35-hexamethyl-11,36-dioxa-4-azatricyclo[30.3.1.04,9]hexatriaconta-16,24,26,28-tetraene-2,3,10,14,20-pentone]
IC50 [1]: 1 to 10 nM
mTORC1 selective @ 90 min (mTORC1 over mTORC2): Yes
IC50 [3]: ≥ 1000 nM
mTORC1 selective @ 24 hrs [2]: Yes
